Legend:
[1] = test system: Pseudomonas aeruginosa PAO1 fabI mutant biofilms; assay: MBEC biofilm killing assay (BacTiter-Glo), fabI mutants; assay type: cell-based; details: triclosan 100 μM alone; 6 hours treatment
Procedure: (§1) The MBEC™ Assay is a high throughput screening assay that allows testing of the efficacy of antimicrobials against biofilms. The MBEC™ Assay's Biofilm Inoculator (referred above as “the lid”) consists of a plastic lid with 96 pegs and a corresponding base with 96 individual wells. Biofilms are grown on the pegs under batch conditions (no flow of nutrients into or out of an individual well) with gentle mixing. The established biofilm is then transferred to a new 96 well plate for antimicrobial efficacy testing. The assay design allows for the evaluation of different of microorganisms, simultaneous testing of multiple biocides at multiple concentrations with replicate samples, making it an efficient screening tool. (Innovotech website http://www.innovotech.ca/products_mbec.php)) […]
Two milliliter overnight cultures of Pseudomonas aeruginosa fabI mutants were grown in MHII medium shaking at 220 rpm at 37° C. […] Cell culture was diluted to a 0.001 absorbance at 600 nm in 10% Mueller-Hinton II medium (MHII) and used to inoculate the bottom of MBEC™ assay plates (Innovotech, Edmonton, Canada). […] Following a 5 minute rinse in MHII, lids were exposed to BacTiter-Glo™ (Promega) and luminescence read in a microtiter plate reader (EnVision® Multilabel Plate Reader, Perkin Elmer, Waltham, USA). […]

[2] = test system: 509=PAO1_Δ(mexAB-oprM)_Δ(mexCD-oprJ)_Δ(mexEF-oprN)_Δ(mexJK)_Δ(mexXY) mutant biofilms; assay: MBEC biofilm killing assay (BacTiter-Glo), efflux pump deletion mutant 509; assay type: cell-based, Pseudomonas aeruginosa; details: triclosan 100 μM alone or with tobramycin 250 μg/mL; 6 hours treatment
Procedure: as §1
(§2) Two milliliter overnight cultures of Pseudomonas aeruginosa mutants were grown in MHII medium shaking at 220 rpm at 37° C. […] Cell culture was diluted to a 0.001 absorbance at 600 nm in 10% Mueller-Hinton II medium (MHII) and used to inoculate the bottom of MBEC™ assay plates (Innovotech, Edmonton, Canada). […] Following a 5 minute rinse in MHII, lids were exposed to BacTiter-Glo™ (Promega) and luminescence read in a microtiter plate reader (EnVision® Multilabel Plate Reader, Perkin Elmer, Waltham, USA). […]

[3] = test system: 509.5=PAO509 expressing triABC mutant biofilms; assay: MBEC biofilm killing assay (BacTiter-Glo), mutant 509.5; assay type: cell-based, Pseudomonas aeruginosa; details: triclosan 100 μM alone or with tobramycin 250 μg/mL; 6 hours treatment
Procedure: as §1, §2

`Oc1cc(Cl)ccc1Oc1ccc(Cl)cc1Cl` [triclosan, Triclosan] was tested, and the “susceptibility of fabI mutant biofilms” value [1] was “triclosan resistance”, the “susceptibility of 509 mutant biofilms” value [2] was “susceptible” and the “percentage of 509.5 mutant biofilms killed” value [3] was “around 50%”.
